Source: patent publication US11912693B2, “Compounds for modulating S1P1 activity and methods of using the same” (TREVENA, INC., priority 2017, dated 2024)

How the values were obtained:
[1] = target: T1, human sphingosine-1-phosphate receptor 1 (S1P1) (Homo sapiens (Human), UniProt P21453); experiment: Inhibition of cAMP production (HTRF cAMP HiRange), S1P1 CHO-K1 cells; format: cell-based; conditions: for hS1P1 cAMP pEC50: inhibition of cAMP production, S1P1 CHO-K1 cells; for Emax: CHO-K1, efficacy (SPAN) normalized to fingolimod, read-out: hS1P1 cAMP SPAN
Summary of the method: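 CHO-K1 cells stably co-expressing human S1P1 (C-terminal Prolink tag) and EA-β-arrestin2 were grown in AssayComplete Media 6 at 37° C. and 5% CO2, plated, and incubated overnight. Agonist-driven inhibition of intracellular cAMP was read by TR-FRET with the HTRF cAMP HiRange kit on a PheraStar reader. Potency is pEC50, and efficacy (SPAN) is normalized to fingolimod.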
Target sequence in this assay (P21453 whole entry, looked up): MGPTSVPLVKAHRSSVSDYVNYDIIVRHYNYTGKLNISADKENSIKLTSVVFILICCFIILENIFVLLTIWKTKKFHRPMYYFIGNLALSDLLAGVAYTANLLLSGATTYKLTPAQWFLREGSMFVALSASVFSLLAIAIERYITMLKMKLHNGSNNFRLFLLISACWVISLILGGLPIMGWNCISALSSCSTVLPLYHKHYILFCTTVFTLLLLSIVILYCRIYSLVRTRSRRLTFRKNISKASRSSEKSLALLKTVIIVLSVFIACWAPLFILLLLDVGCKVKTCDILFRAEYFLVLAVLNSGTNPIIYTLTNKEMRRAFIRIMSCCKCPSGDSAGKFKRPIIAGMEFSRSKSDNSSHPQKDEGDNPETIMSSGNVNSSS

[2] = target: T1, human sphingosine-1-phosphate receptor 1 (S1P1); experiment: β-Arrestin2 recruitment assay (PathHunter), S1P1 CHO-K1 cells; format: cell-based; conditions: for hS1P1 B-arrestin2 pEC50: β-arrestin2 recruitment, S1P1 CHO-K1 cells; for Emax: CHO-K1, efficacy (SPAN) normalized to fingolimod, read-out: hS1P1 B-arrestin2 SPAN
Summary of the method: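 Enzyme-fragment complementation read-out: agonist-driven β-arrestin2 binding to ProLink-tagged human S1P1 in stable CHO-K1 cells restores β-galactosidase, measured 1 h at room temperature after a 60 min 37° C. compound incubation. Potency as pEC50, efficacy relative to fingolimod (SPAN).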
Target sequence in this assay (P21453 whole entry, looked up): as above
Target sequence in this assay (P32121 whole entry partner, looked up): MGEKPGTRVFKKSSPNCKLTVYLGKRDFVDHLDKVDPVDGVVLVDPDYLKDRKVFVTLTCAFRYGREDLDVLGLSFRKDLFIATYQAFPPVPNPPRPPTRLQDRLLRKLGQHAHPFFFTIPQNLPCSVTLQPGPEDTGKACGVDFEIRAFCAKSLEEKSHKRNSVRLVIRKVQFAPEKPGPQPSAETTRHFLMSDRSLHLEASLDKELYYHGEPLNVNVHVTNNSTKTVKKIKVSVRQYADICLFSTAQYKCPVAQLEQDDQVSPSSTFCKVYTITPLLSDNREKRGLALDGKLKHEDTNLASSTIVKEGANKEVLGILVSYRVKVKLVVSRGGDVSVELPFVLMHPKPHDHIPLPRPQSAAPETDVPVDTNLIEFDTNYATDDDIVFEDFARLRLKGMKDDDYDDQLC

hS1P1 cAMP pEC50 [1]	hS1P1 B-arrestin2 pEC50 [2]	Emax [1] [%]	Emax [2] [%]	SMILES
<6.5	<5			CC(C)Oc1ccccc1-c1noc(-c2ccc3c(c2)nnn3C(C)C)n1 [Compound 62, 3-(2-isopropoxyphenyl)-5-(1-isopropyl-1H-benzo[d][1,2,3]triazol-5-yl)-1,2,4-oxadiazole]
<6.5	<5	< 75	< 75	CC(C)CCn1nnc2cc(-c3nc(-c4ccc(C(F)(F)F)c(F)c4)no3)ccc21 [Compound 122, 5-{3-[3-fluoro-4-(trifluoromethyl)phenyl]-1,2,4-oxadiazol-5-yl}-1-(3-methylbutyl)-1H-1,2,3-benzotriazole]
>6.5	>5	< 75	< 75	Cc1ccsc1-c1nc(-c2ccc3c(c2)nnn3C(C)(C)CO)no1 [Compound 611, 2-methyl-2-(5-(5-(3-methylthiophen-2-yl)-1,2,4-oxadiazol-3-yl)-1H-benzo[d][1,2,3]triazol-1-yl)propan-1-ol]
>6.5	<5	> 75	> 75	c1cc(-c2noc(-c3ccc4c(c3)nnn4C3CCCC3)n2)ccn1 [Compound 174, 1-cyclopentyl-5-[3-(pyridin-4-yl)-1,2,4-oxadiazol-5-yl]-1H-1,2,3-benzotriazole]
<6.5	<5	> 75	> 75	CC(C)n1nnc2cc(-c3nc4c(Cl)cccc4o3)ccc21 [Compound 427, 4-chloro-2-(1-isopropyl-1H-benzo[d][1,2,3]triazol-5-yl)benzo[d]oxazole]
>6.5	>5	> 75	> 75	C=CCNc1ccc(-c2nc(-c3ccc4c(c3)CCC(=O)N4)no2)cc1C#N [Compound 61, 2-(allylamino)-5-(3-(2-oxo-1,2,3,4-tetrahydroquinolin-6-yl)-1,2,4-oxadiazol-5-yl)benzonitrile]
<6.5	<5			Fc1cc(-c2noc(-c3ccc4c(c3)nnn4C3CCCC3)n2)ccc1C(F)(F)F [Compound 1, 1-cyclopentyl-5-{3-[3-fluoro-4-(trifluoromethyl)phenyl]-1,2,4-oxadiazol-5-yl}-1H-1,2,3-benzotriazole]
<6.5	<5	< 75	> 75	COc1cccc(-c2coc(-c3ccc4c(c3)nnn4C(C)C)n2)c1 [Compound 385, 5-[4-(3-methoxyphenyl)-1,3-oxazol-2-yl]-1-(propan-2-yl)-1H-1,2,3-benzotriazole]
<6.5	<5			CCCn1nnc2cc(-c3nc(-c4ccccc4)no3)ccc21 [Compound 160, 5-(3-phenyl-1,2,4-oxadiazol-5-yl)-1-propyl-1H-1,2,3-benzotriazole]
<6.5	<5	> 75	> 75	CC(C)(CO)n1nnc2cc(-c3noc(-c4cnccc4C(F)(F)F)n3)ccc21 [Compound 644, 2-methyl-2-(5-(5-(4-(trifluoromethyl)pyridin-3-yl)-1,2,4-oxadiazol-3-yl)-1H-benzo[d][1,2,3]triazol-1-yl)propan-1-ol]
>6.5	>5			Cc1cccc2oc(-c3ccc4c(c3)nnn4CC(C)C)nc12 [Compound 447, 2-(1-isobutyl-1H-benzo[d][1,2,3]triazol-5-yl)-4-methylbenzo[d]oxazole]
>6.5	>5			Cn1cnc2ccc(-c3nnc(-c4ccc(NCC(F)(F)CO)c(C#N)c4)o3)cc21 [Compound 635, 2-[(2,2-difluoro-3-hydroxypropyl)amino]-5-[5-(1-methyl-1H-1,3-benzodiazol-6-yl)-1,3,4-oxadiazol-2-yl]benzonitrile]
<6.5	<5	> 75	> 75	CC(C)Cn1nnc2cc(-c3nc4c(Br)cccc4o3)ccc21 [Compound 461, 4-bromo-2-(1-isobutyl-1H-benzo[d][1,2,3]triazol-5-yl)benzo[d]oxazole]
<6.5	<5			CC(C)(O)Cn1nnc2cc(-c3nc(-c4ccc5nonc5c4)no3)ccc21 [Compound 590, 1-{5-[3-(2,1,3-benzoxadiazol-5-yl)-1,2,4-oxadiazol-5-yl]-1H-1,2,3-benzotriazol-1-yl}-2-methylpropan-2-ol]

More lines, now with the values behind:

SMILES	hS1P1 cAMP pEC50 [1]	hS1P1 B-arrestin2 pEC50 [2]	Emax [1] [%]	Emax [2] [%]
COc1cnc(-c2nc(-c3ccc4c(c3)nnn4C(C)C)no2)cn1 [Compound 51, 3-(1-isopropyl-1H-benzo[d][1,2,3]triazol-5-yl)-5-(5-methoxypyrazin-2-yl)-1,2,4-oxadiazole]	<6.5	<5		
CCC1(CC)CC(=O)c2cc(-c3nc(-c4cncc(F)c4)no3)ccc2O1 [Compound 551, 2,2-diethyl-6-(3-(5-fluoropyridin-3-yl)-1,2,4-oxadiazol-5-yl)chroman-4-one]	>6.5	>5		
Brc1ccccc1-c1nc(-c2ccc3c(c2)nnn3CC2CC2)no1 [Compound 98, 5-(2-bromophenyl)-3-(1-(cyclopropylmethyl)-1H-benzo[d][1,2,3]triazol-5-yl)-1,2,4-oxadiazole]	<6.5	>5	> 75	> 75
Cc1ccccc1-c1noc(-c2ccc3c(c2)nnn3C2CCOCC2)n1 [Compound 95, 5-[3-(2-methylphenyl)-1,2,4-oxadiazol-5-yl]-1-(oxan-4-yl)-1H-1,2,3-benzotriazole]	<6.5	<5	< 75	< 75
COc1ccccc1-c1noc(-c2ccc3c(c2)NC(=O)CN3)n1 [Compound 614, 7-[3-(2-methoxyphenyl)-1,2,4-oxadiazol-5-yl]-1,2,3,4-tetrahydroquinoxalin-2-one]	<6.5	<5		
CCc1ncc(-c2noc(-c3ccc4c(c3)nnn4C(C)C)n2)cn1 [Compound 135, 5-[3-(2-ethylpyrimidin-5-yl)-1,2,4-oxadiazol-5-yl]-1-(propan-2-yl)-1H-1,2,3-benzotriazole]	<6.5	<5	< 75	< 75
Brc1ccccc1-c1nc(-c2ccc3[nH]nnc3c2)no1 [Compound 97, 3-(1H-benzo[d][1,2,3]triazol-5-yl)-5-(2-bromophenyl)-1,2,4-oxadiazole]	<6.5	<5	< 75	< 75
COc1cccc(F)c1-c1noc(-c2ccc3c(cnn3C(C)C)c2)n1 [Compound 338, 3-(2-fluoro-6-methoxy-phenyl)-5-(1-isopropylindazol-5-yl)-1,2,4-oxadiazole]	<6.5	<5	> 75	> 75
CC(C)n1nnc2cc(-c3noc(C4CCOCC4)n3)ccc21 [Compound 89, 5-[5-(oxan-4-yl)-1,2,4-oxadiazol-3-yl]-1-(propan-2-yl)-1H-1,2,3-benzotriazole]	<6.5	<5	< 75	< 75
CCC1(CC)CC(=O)c2cc(-c3nc(-c4ccc5sc(N)nc5c4)no3)ccc2O1 [Compound 446, 6-(3-(2-aminobenzo[d]thiazol-5-yl)-1,2,4-oxadiazol-5-yl)-2,2-diethylchroman-4-one]	<6.5	<5	< 75	< 75
COc1ccccc1-c1noc(-c2ccc3c(ccn3C(C)C)c2)n1 [Compound 372, 5-(1-isopropyl-1H-indol-5-yl)-3-(2-methoxyphenyl)-1,2,4-oxadiazole]	>6.5	>5		
CC(C)n1nnc2cc(-c3noc(C45CC6CC(CC(C6)C4)C5)n3)ccc21 [Compound 200, 5-[5-(adamantan-1-yl)-1,2,4-oxadiazol-3-yl]-1-(propan-2-yl)-1H-1,2,3-benzotriazole]	<6.5	<5		
CCCC1CC(=O)c2ccc(-c3nc(-c4cccnc4)no3)cc2O1 (stereo not shown) [Compound 630, 2-propyl-7-[3-(pyridin-3-yl)-1,2,4-oxadiazol-5-yl]-3,4-dihydro-2H-1-benzopyran-4-one]	<6.5	<5		
CCC1(CC)CC(=O)c2cc(-c3nc(-c4cncc(O)c4)no3)ccc2O1 [Compound 310, 2,2-diethyl-6-[3-(5-hydroxy-3-pyridyl)-1,2,4-oxadiazol-5-yl]chroman-4-one]	>6.5	>5	> 75	> 75
CCC1(CC)CC(=O)c2cc(-c3nc(-c4cncc(NC(C)=O)c4)no3)ccc2O1 [Compound 538, N-(5-(5-(2,2-diethyl-4-oxochroman-6-yl)-1,2,4-oxadiazol-3-yl)pyridin-3-yl)acetamide]	>6.5	>5		
CCC1(CC)CC(=O)c2cc(-c3nnc(-c4ccccc4OC)s3)ccc2O1 [Compound 178, 2,2-diethyl-6-(5-(2-methoxyphenyl)-1,3,4-thiadiazol-2-yl)chroman-4-one]	<6.5	>5	> 75	< 75
